One may read the pEC50 as the EC50 on a negative log10 scale, so that one unit is a factor of ten. Low readings indicate a large EC50, high ones a small EC50. The pKi is the Ki on a negative log10 scale, so that one unit is a factor of ten. Low values mean a large Ki, high ones a small Ki.

Three molecules from ChEMBL document CHEMBL3856240, “Structural determinants of diphenethylamines for interaction with the κ opioid receptor: Synthesis, pharmacology and molecular modeling studies” (Bioorg Med Chem Lett, 2016) can be followed below.

Experiment [1] concerns the target T1, Kappa-type opioid receptor (Homo sapiens, UniProt P41145). Put plainly: Agonist activity at human kappa opioid receptor expressed in CHO cell membranes after 60 mins by [35S]GTPgammaS assay. A general note: GTPγS is a poorly hydrolysed GTP analogue; its binding reports G protein activation.
For a further experiment, the target named is Mu-type opioid receptor (Homo sapiens, UniProt P35372). The experiment can be described thus: Displacement of [3H]DAMGO from human mu opioid receptor expressed in CHO cell membranes after 60 mins by liquid scintillation counting. On the technique in general: Loss of bound radioactivity is the signal in a displacement assay; it reports binding, not function.
Chain of Mu-type opioid receptor (P35372 whole entry): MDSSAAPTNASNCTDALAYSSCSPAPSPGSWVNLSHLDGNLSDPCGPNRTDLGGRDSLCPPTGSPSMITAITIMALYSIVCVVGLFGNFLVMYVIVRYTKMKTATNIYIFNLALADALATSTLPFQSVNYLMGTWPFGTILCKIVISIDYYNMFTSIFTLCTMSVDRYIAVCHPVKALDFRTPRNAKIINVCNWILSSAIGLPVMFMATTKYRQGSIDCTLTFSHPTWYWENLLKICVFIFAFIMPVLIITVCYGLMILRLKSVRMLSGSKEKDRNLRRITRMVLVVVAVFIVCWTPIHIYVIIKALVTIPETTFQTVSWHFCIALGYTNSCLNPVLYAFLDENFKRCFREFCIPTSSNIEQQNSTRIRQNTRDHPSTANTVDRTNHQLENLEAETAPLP

The target of experiment [2] is Delta-type opioid receptor (Homo sapiens, UniProt P41143). Put plainly: Displacement of [3H]pCl-DPDPE from human delta opioid receptor expressed in CHO cell membranes after 60 mins by liquid scintillation counting.
Chain of Delta-type opioid receptor (P41143 whole entry): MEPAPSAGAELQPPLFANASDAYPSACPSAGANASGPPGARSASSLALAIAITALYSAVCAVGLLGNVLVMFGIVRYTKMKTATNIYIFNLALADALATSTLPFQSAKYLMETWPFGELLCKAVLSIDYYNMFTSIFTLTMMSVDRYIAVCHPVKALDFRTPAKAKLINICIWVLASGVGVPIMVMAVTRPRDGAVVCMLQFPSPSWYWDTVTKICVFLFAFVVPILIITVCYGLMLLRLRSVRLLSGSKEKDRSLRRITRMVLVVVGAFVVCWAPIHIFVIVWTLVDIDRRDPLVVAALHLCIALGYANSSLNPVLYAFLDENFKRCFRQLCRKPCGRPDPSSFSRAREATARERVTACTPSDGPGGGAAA
Experiment [3] concerns the target T1, Kappa-type opioid receptor. Put plainly: Displacement of [3H]U69,593 from human kappa opioid receptor expressed in CHO cell membranes after 60 mins by liquid scintillation counting.
The target in experiment [4] is T1, Kappa-type opioid receptor. The note with it: CHO.
Description: Antagonist activity at human kappa opioid receptor expressed in CHO cell membranes assessed as inhibition of U69,593 stimulated [35S]GTPgammaS binding after 60 mins
Experiment [5] has as its target T1, Kappa-type opioid receptor. The experiment can be described thus: Agonist activity at human kappa opioid receptor expressed in CHO cell membranes after 60 mins by [35S]GTPgammaS assay relative to U69,593. The settings on record: 1 h, read-out: %max.

pEC50, pKi: −log10 of the molar value.

T1 sequence (P41145 whole entry): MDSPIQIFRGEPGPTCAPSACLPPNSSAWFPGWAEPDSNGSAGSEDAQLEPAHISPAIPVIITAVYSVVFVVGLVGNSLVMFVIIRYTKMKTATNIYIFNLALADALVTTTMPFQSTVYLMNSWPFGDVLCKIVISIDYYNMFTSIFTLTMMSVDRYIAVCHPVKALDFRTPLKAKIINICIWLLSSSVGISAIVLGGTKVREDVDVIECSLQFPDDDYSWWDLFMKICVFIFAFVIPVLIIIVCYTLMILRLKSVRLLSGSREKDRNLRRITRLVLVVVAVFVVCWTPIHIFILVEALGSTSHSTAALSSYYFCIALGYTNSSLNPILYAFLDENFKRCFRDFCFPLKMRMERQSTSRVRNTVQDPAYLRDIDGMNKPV

In experiment [1], `Oc1ccc(CCN(CCc2ccccc2)CC2CC2)cc1` showed a pEC50 of less than 5.00. For the same molecule, the pKi at Mu-type opioid receptor is 5.76; in experiment [2], 5.66; in experiment [3], 6.66. Moreover, the Ke in experiment [4] came to 32.1 nM.
As to `Oc1ccc(CCN(CCc2ccccc2)CC2CCC2)cc1`, the pEC50 in experiment [1] is 6.96. Further, the pKi on Mu-type opioid receptor was 6.14; in experiment [2], 5.67; in experiment [3], 7.44. In addition, the Emax in experiment [5] worked out at 43.8%.
For the molecule `Oc1cccc(CCN(CCc2ccccc2)CCc2ccccc2)c1`, the pEC50 in experiment [1] is less than 5.00. The pKi on Mu-type opioid receptor is less than 5.00; in experiment [2] it was less than 5.00; in experiment [3], 6.68. This molecule yielded a Ke in experiment [4] of 1310 nM.
